Laboratory results: patent US20180000794A1, “COMPOSITION FOR PREVENTION OR TREATMENT OF BRONCHIAL ASTHMA COMPRISING PKR INHIBITOR AS ACTIVE INGREDIENT” (INDUSTRIAL COOPERATION FOUNDATION CHONBUK NATIONAL …, priority 2015, published 2018)

What was measured:
Type in all cases: in vivo, mouse
[1] = test system: IL-4, IL-5, IL-13, IL-17, KC; test: Cytokines and chemokines in lung tissues by Western blotting, mice with neutrophilic severe asthma; details: Western blotting of lung tissue proteins; OVA+LPS-induced asthma; FIGS. 4A to 4E
Source text: (§1) 8-week old female C57BL/6 mice were purchased from Orient Bio (Sungnam, Korea) and used as experimental animals. Experimental groups were divided into 4 groups and 5 C57BL/6 mice were assigned to each group. Animals in one experimental group were inhaled with saline and treated with vehicle. Animals in the other three experimental groups were sensitized with ovalbumin (OVA) and lipopolysaccharide (LPS), followed by inhalation of ovalbumin to induce asthma. Animals with induced asthma in one experimental group were treated with vehicle 1 hour before the first inhalation of ovalbumin and 6 hours after the last inhalation of ovalbumin. […]
Quantitation of cytokines and chemokines was confirmed by Western blotting of the proteins in lung tissues. […] Then, the samples were loaded on SDS-PAGE gel and quantitated using an anti-IL-4 antibody (Serotec, UK) against IL-4, an anti-IL-5 antibody (SantaCruz Biotechnology, USA) against IL-5, anti-IL-13 and anti-IL-17 antibodies (R&D Systems, USA) against IL-13 and IL-17, and an anti-KC antibody against keratinocyte-induced chemokine (KC) (BioVision, USA), and the results are shown in FIGS. 4A to 4E.

[2] = test system: mice with neutrophilic severe asthma; test: Peribronchitis and perivascular inflammation in lung tissues (H&E histology) of mice with neutrophilic severe asthma; details: C57BL/6 mice, OVA+LPS-induced asthma; H&E stained lung sections, optical microscope 20×; FIG. 2
Source text: as §1, with “ovalbumin. Animals in the other two experimental groups were intraperitoneally administered with 60 μg/kg and […] of the PKR inhibitor [6,8-Dihydro-8-(1H-imidazol-5-ylmethylene)-7H-pyrrolo[2,3-g]benzothiazol-7-one] a total of two times, 1 hour before the first inhalation of ovalbumin and 6 hours after the last inhalation of ovalbumin.” for “ovalbumin.”

[3] = test system: mice with neutrophilic severe asthma; test: Bronchial hyperresponsiveness (Rrs) to aerosol methacholine in mice with neutrophilic severe asthma; details: methacholine 5.0 to 50 mg/ml by nebulizer; compared to the group treated with vehicle only; FIG. 3
Source text: as §1
In order to identify the effects of the PKR inhibitor of the present invention on bronchial hyperresponsiveness in mouse models with neutrophilic severe asthma, aerosol methacholine was administered into the airways of mice, and then the changes in airway function were measured. […] At the same time, the mice were administered with methacholine through the ventilator while gradually increasing the dose from 5.0 mg/ml to 50 mg/ml using a nebulizer, and the bronchial hyperresponsiveness (Rrs) was continuously measured. The bronchial hyperresponsiveness was assessed as a percentage of the basal value when the maximum of Rrs values measured at each methacholine concentration was administered to saline control, and the results are shown in FIG. 3.

SMILES: O=C1Nc2ccc3ncsc3c2/C1=C/c1c[nH]cn1 [PKR inhibitor, 6,8-Dihydro-8-(1H-imidazol-5-ylmethylene)-7H-pyrrolo[2,3-g]benzothiazol-7-one]
- cytokines and chemokines in lung tissues (IL-4, IL-5, IL-13, IL-17, KC) [1]: reduced
- level of airway inflammation in lung tissues [2]: significantly reduced
- Rrs values (bronchial hyperresponsiveness) [3]: significantly reduced
- airway resistance dose response curves [3]: shifted to the right
